Data set [1] has as its system Influenza B virus. Kind of data set: Antiviral activity against Influenza B virus infected in dog MDCK cells assessed as reduction in virus yield measured after 3 days by visual analysis. The data set is classed as functional. Particulars: 72 h, time 3 day.
Data set [2] in a line: Selectivity index, ratio of CC50 for cytotoxicity against dog MDCK cells infected with Influenza B virus assessed as reduction in cell viability by neutral dye based analysis to EC50 for antiviral activity against Influenza B virus infected in dog MDCK cells assessed as inhibition of viral replication by neutral red dye based analysis. The data set is classed as toxicity. The conditions noted are these: read-out: Ratio CC50/EC50.

Data set [3] can be described thus: Cytotoxicity against African green monkey Vero cells infected with Pichinde virus assessed as reduction in cell viability by visual analysis. Type of data set: toxicity, cell-based. Particulars: chlorocebus sabaeus.
A short description of data set [4]: Cytotoxicity against African green monkey Vero 76 cells infected with La Crosse virus assessed as reduction in cell viability by visual analysis. The data set is classed as toxicity, cell-based. Particulars: chlorocebus sabaeus.
A short description of data set [5]: Selectivity index, ratio of CC50 for cytotoxicity against dog MDCK cells infected with Influenza A virus H3N2 assessed as reduction in cell viability by visual analysis to EC50 for antiviral activity against Influenza A virus H3N2 infected in dog MDCK cells assessed as inhibition of viral replication by visual analysis. Particulars: read-out: Ratio CC50/EC50. The data set is classed as toxicity, cell-based.

Data set [6] deals with Influenza A virus. Kind of data set: Antiviral activity against Influenza A virus H1N1 infected in dog MDCK cells assessed as inhibition of viral replication measured after 15 to 30 mins by visual analysis. Type of data set: functional, organism-based.
Data set [7] in a line: Cytotoxicity against dog MDCK cells infected with Influenza A virus H3N2 assessed as reduction in cell viability by neutral red dye based analysis. Type of data set: toxicity, Canis lupus familiaris.
Data set [8] concerns Junin virus. Kind of data set: Antiviral activity against Junin virus infected in African green monkey Vero E6 cells assessed as inhibition of viral replication by visual analysis. Type of data set: functional, organism-based. Particulars: Mammarenavirus juninense, Vero C1008.
Data set [9] in a line: Toxicity in BALB/c mouse infected with A/Ca/04/09 (H1N1) assessed as animal mean day of death at 10 mg/kg, ip administered twice a day for 5 days (reference value: 9.3 +/-1.1 day ). Particulars: in vivo, 120 h, time 5 day. Type of data set: organism-based.
Data set [10] can be described thus: Selectivity index, ratio of CC50 for cytotoxicity against African green monkey Vero 76 cells infected with Punta Toro virus assessed as reduction in cell viability by visual analysis to EC50 for antiviral activity against Punta Toro virus infected in African green monkey Vero 76 cells assessed as reduction in viral replication by visual analysis. Type of data set: toxicity, cell-based. Particulars: read-out: Ratio CC50/EC50.

Data set [11] is described as follows: Cytotoxicity against African green monkey Vero 76 cells infected with Punta Toro virus assessed as reduction in cell viability by neutral red dye based analysis. The data set is classed as toxicity. Particulars: chlorocebus sabaeus.
In data set [12] the test system is Influenza B virus. Description: Antiviral activity against Influenza B virus infected in dog MDCK cells assessed as inhibition of viral replication measured after 15 to 30 mins by neutral red dye based analysis. The data set is classed as functional, organism-based.
Data set [13] concerns Influenza A virus. Kind of data set: Antiviral activity against Influenza A virus H3N2 infected in dog MDCK cells assessed as inhibition of viral replication measured after 15 to 30 mins by neutral red dye based analysis. Type of data set: functional, organism-based.
The subject of another data set is Heartland virus. Description: Antiviral activity against Heartland virus infected in African green monkey Vero E6 cells assessed as reduction in viral yield measured for 3 days. The conditions noted are these: Vero C1008, 72 h, time 3 day. The data set is classed as functional.
Data set [14] is described as follows: Selectivity index, ratio of CC50 for cytotoxicity against African green monkey Vero E6 cells infected with Oropouche virus assessed as reduction in cell viability by neutral red dye based analysis to EC50 for antiviral activity against Oropouche virus infected in African green monkey Vero E6 cells assessed as reduction in viral replication by neutral red dye based analysis. The conditions noted are these: read-out: Ratio CC50/EC50. Type of data set: toxicity, Vero C1008.

Data set [15] can be described thus: Selectivity index, ratio of CC50 for cytotoxicity against African green monkey Vero 76 cells infected with La Crosse virus assessed as reduction in cell viability by visual analysis to EC50 for antiviral activity against La Crosse virus infected in African green monkey Vero 76 cells assessed as reduction in viral replication by visual analysis. The data set is classed as toxicity, cell-based. Particulars: read-out: Ratio CC50/EC50.

A short description of data set [16]: Selectivity index, ratio of CC50 for cytotoxicity against African green monkey Vero 76 cells infected with MERS-CoV assessed as reduction in cell viability by neutral red dye based analysis to EC50 for antiviral activity against MERS-CoV infected in African green monkey Vero 76 cells assessed as reduction in virus-induced cytopathic effect by neutral red dye based analysis. The conditions noted are these: read-out: Ratio CC50/EC50. Type of data set: toxicity. For orientation: Cytopathic effects are the visible damage that an infection or toxin causes in cultured cells.

Data set [17] is described as follows: Selectivity index, ratio of CC50 for cytotoxicity against African green monkey Vero 76 cells infected with Rift Valley fever virus assessed as reduction in cell viability to EC90 for antiviral activity against Rift Valley fever virus infected in African green monkey Vero 76 cells assessed as reduction in viral yield. The data set is classed as toxicity, cell-based.

Data set [18] has as its system Junin virus. Description: Antiviral activity against Junin virus infected in African green monkey Vero E6 cells assessed as inhibition of viral replication by neutral red dye based analysis. The data set is classed as functional, organism-based. Particulars: Mammarenavirus juninense, Vero C1008.
Data set [19] has as its system Influenza B virus. Description: Antiviral activity against Influenza B virus infected in dog MDCK cells assessed as inhibition of viral replication measured after 15 to 30 mins by visual analysis. The data set is classed as functional, organism-based.
Data set [20] in a line: Cytotoxicity against African green monkey Vero E6 cells infected with Rift Valley fever virus assessed as reduction in cell viability. Type of data set: toxicity, cell-based, Vero C1008. The conditions noted are these: chlorocebus sabaeus.
The nature of data set [21]: Selectivity index, ratio of CC50 for cytotoxicity against African green monkey Vero 76 cells infected with MERS-CoV assessed as reduction in cell viability by visual analysis to EC50 for antiviral activity against MERS-CoV infected in African green monkey Vero 76 cells assessed as reduction in virus-induced cytopathic effect by visual analysis. Type of data set: toxicity, cell-based. The conditions noted are these: read-out: Ratio CC50/EC50.

Data set [22] is described as follows: Selectivity index, ratio of CC50 for cytotoxicity against dog MDCK cells infected with Influenza A virus H1N1 assessed as reduction in cell viability by neutral red dye based analysis to EC50 for antiviral activity against Influenza A virus H1N1 infected in dog MDCK cells assessed as inhibition of viral replication by neutral red dye based analysis. Type of data set: toxicity. The conditions noted are these: read-out: Ratio CC50/EC50.

Data set [23] can be described thus: Selectivity index, ratio of CC50 for cytotoxicity against African green monkey Vero cells infected with Pichinde virus assessed as reduction in cell viability by neutral red dye based analysis to EC50 for antiviral activity against Pichinde virus infected in African green monkey Vero cells assessed as reduction in viral replication by neutral red dye based analysis. Type of data set: toxicity. Particulars: read-out: Ratio CC50/EC50.

Data set [24] can be described thus: Selectivity index, ratio of CC50 for cytotoxicity against African green monkey Vero 76 cells infected with La Crosse virus assessed as reduction in cell viability by neutral red dye analysis to EC50 for antiviral activity against La Crosse virus infected in African green monkey Vero 76 cells assessed as reduction in viral replication by neutral red dye analysis. Type of data set: toxicity, cell-based. The conditions noted are these: read-out: Ratio CC50/EC50.

Data set [25] concerns Influenza A virus. Description: Antiviral activity against Influenza A virus H3N2 infected in dog MDCK cells assessed as reduction in virus yield measured after 3 days by visual analysis. The data set is classed as functional. The conditions noted are these: 72 h, time 3 day.
Data set [26] is described as follows: Selectivity index, ratio of CC50 for cytotoxicity against dog MDCK cells infected with Influenza A virus H3N2 assessed as reduction in cell viability by visual analysis to EC90 for antiviral activity against Influenza A virus H3N2 infected in dog MDCK cells assessed as reduction in viral yield by visual analysis. Type of data set: toxicity, cell-based.
Data set [27] in a line: Cytotoxicity against African green monkey Vero cells infected with Pichinde virus assessed as reduction in cell viability by neutral red dye based analysis. Type of data set: toxicity. Particulars: chlorocebus sabaeus.
The nature of data set [28]: Selectivity index, ratio of CC50 for cytotoxicity against African green monkey Vero cells infected with DENV-2 assessed as reduction in cell viability by visual analysis to EC50 for antiviral activity against DENV-2 infected in human Huh-7 cells assessed as reduction in virus-induced cytopathic effect by visual analysis. Type of data set: toxicity, cell-based. The conditions noted are these: read-out: Ratio CC50/EC50.

Data set [29] is described as follows: Selectivity index, ratio of CC50 for cytotoxicity against African green monkey Vero cells infected with DENV-2 assessed as reduction in cell viability by neutral red analysis to EC50 for antiviral activity against DENV-2 infected in human Huh-7 cells assessed as reduction in virus-induced cytopathic effect by neutral red analysis. Type of data set: toxicity, cell-based. Particulars: read-out: Ratio CC50/EC50.

As a reminder, the EC90 is the point of the concentration-response curve where the effect stands at 90%. For orientation: CC50 means the concentration giving 50% cytotoxicity. By EC50 is commonly meant the concentration giving half of the maximal effect.

For `Nc1ncnn2c([C@@H]3N[C@H](CO)[C@@H](O)[C@H]3O)ccc12`, the values for the EC90 in the data set with Influenza B virus [1], with Heartland virus and in the data set with Influenza A virus [25] were 0.3 µM, 0.13 µM and 0.25 µM, respectively. The selectivity ratio in data set [2] was 38; in data set [5], 38; in [10] it was 41; in data set [14] it was 75; in [15], greater than 240; in [16] it was 15. The selectivity ratio in [17] was 78; in [21], 31; in data set [22] it was 44; in data set [23], 28; in data set [24], greater than 240; in [26], 64. In addition, the CC50 in data set [3] worked out at 16 µM; in data set [4], 24 µM; in data set [7], 10 µM; in data set [11] it was 10 µM; in data set [20] it was 8.6 µM; in [27] it was 8.4 µM. For the same molecule, the EC50 with Influenza A virus [6] came out at 0.32 µM; with Junin virus [8] it was 0.54 µM; in the data set on Influenza B virus [12] it was 0.26 µM; in the data set on Influenza A virus [13], 0.31 µM; in the data set with Junin virus [18], 0.28 µM; in the data set on Influenza B virus [19], 0.32 µM. In addition, in [9], the Time worked out at 12 days.
With `Nc1ncnc2c([C@@H]3N[C@H](CO)[C@@H](O)[C@H]3O)c[nH]c12` [GALIDESIVIR], the selectivity ratio is greater than 24 in data set [28] and greater than 6.7 in data set [29].

The values above are taken from ChEMBL document CHEMBL5257097, “An Isomer of Galidesivir That Potently Inhibits Influenza Viruses and Members of the Bunyavirales Order” (ACS Med Chem Lett, 2023).
